Laboratory results: patent US12036225B2, “Use of ibezapolstat to promote microbiome health” (Acurx Pharmaceuticals, Inc., priority 2021, dated 2024)

Key:
C. difficile infection [1] = experiment: Phase 2a open-label trial in CDI patients: clinical cure and sustained clinical cure; format: in vivo, human; settings: 10 CDI patients
Experimental: Phase 2a of this trial was an open-label cohort of 10 subjects from study centers in the United States. In this cohort, 10 patients with diarrhea caused by mild/moderate C. difficile diagnosed via toxin EIA+ were treated with ibezapolstat 450 mg orally, twice daily for 10 days. All patients were followed for recurrence for 28±2 days. Stool was collected during course of therapy and at follow up. Patient fecal samples were evaluated for C. difficile culture and microbiome changes.
The primary efficacy outcome measure was clinical cure at EOT defined as resolution of diarrhea in the 24-hour period preceding EOT and maintained for at least 48 hours post EOT. SCC was defined as clinical cure with no recurrence of CDI within 28 (±2) days after EOT.
An intent-to-treat analysis of patients receiving at least one dose of ibezapolstat was conducted. Descriptive statistics were calculated for efficacy, safety/tolerability, and PK data generated using SAS version 9.4 software (SAS Institute, Inc Cary, NC, USA). Microbiome summary plots and data visualization was prepared using R software version 4.1.1 (R Core Team 2021, Vienna, Austria). (R Core Team (2013). R: A language and environment for statistical computing. R Foundation for Statistical Computing, Vienna, Austria.) Alpha diversity for each sample was assessed with the VeganR package version 2.4-2 using the Shannon Diversity Index and Inverse Simpson Index. Differences in alpha diversity (Shannon Diversity and Inverse Simpson Indexes) and bile acids at baseline compared to during or after therapy were compared using linear regression models. Proportional changes of bacterial taxa over the 10-day dosing interval were calculated using linear regression models for taxa with at least a one percent proportional change during the study time period. A p value <0.05 was considered significant.

[2] = Phase 2a trial: safety assessments (adverse events); format: in vivo, human
Experimental: Safety evaluations included AE assessment, physical examination, vital signs, clinical laboratory tests (chemistry, hematology, and urinalysis), and electrocardiography. Safety endpoints for all subjects were recorded including nature, frequency, and severity of AEs. AEs were assessed at each visit beginning from the time of enrollment and classified according to the Medical Dictionary for Regulatory Activities (MedDRA version 15.0). AE severity (mild, moderate, or severe) and causality (unrelated, possibly related, or probably related to the study medication) were assessed by the investigator at each site.

[3] = Phase 2a trial: plasma and fecal concentrations (PK); format: in vivo, human; settings: CDI patients
Experimental: Plasma levels were drawn at 2 and 4 hours after the first daily ibezapolstat administration on days 1, 5, and 10. Fecal samples were collected at baseline and daily during days 1-10 of ibezapolstat receipt. Plasma and fecal concentrations were assayed by AltaSciences (Laval, Quebec, Canada) and PK analyses were performed by Learn and Confirm Inc. (Montreal, Quebec, Canada).

C. difficile = experiment: Phase 2a trial: stool culture for C. difficile on CCFA; format: in vivo, Clostridioides difficile; settings: CDI patients
Experimental: Stool samples were cultured for C. difficile growth on a selective cycloserine-cefoxitin fructose agar (CCFA) at 37° C. under anaerobic conditions for 48 hours. (Gonzales-Luna). Isolates were determined to be C. difficile based on growth and morphology and confirmed by PCR for C. difficile toxin and tpi genes. C. difficile was strain typed using a PCR-based ribotyping method as previously described. (Gonzales-Luna A J, Carlson T J, Dotson K M, et al. PCR ribotypes of Clostridioides difficile across Texas from 2011 to 2018 including emergence of ribotype 255. Emerg Microbes Infect 2020; 9(1): 341-7.) Minimum inhibitory concentrations (MICs) were determined for ibezapolstat by broth microdilution in 0.1% sodium taurocholate Brain Heart Infusion (BHI) media. (Begum K, Basseres E, Miranda J, et al. In Vitro Activity of Omadacycline, a New Tetracycline Analog, and Comparators against Clostridioides difficile. Antimicrob Agents Chemother 2020; 64(8).)

C. difficile infection [4] = settings: literature (Gonzales-Luna); cited from earlier work
[5] = ibezapolstat 450 mg orally twice daily 10 days
[6] = CDI patients receiving ibezapolstat

## O=c1[nH]c(NCc2ccc(Cl)c(Cl)c2)nc2ncn(CCN3CCOCC3)c12 [Ibezapolstat, 2-((3,4-dichlorobenzyl)amino)-7-(2-morpholinoethyl)-1,7-dihydro-6H-purin-6-one]
C. difficile infection [1]; followed 28±2 days
  no recurrences of infection: 100%
C. difficile infection [1]; [5]
  clinical cure at day 12: 100%
  infection eliminated: 100%
  sustained clinical cure at day 38: 100%
[2]; 10 CDI patients
  number of AEs reported: Seven
  serious AEs: None
[2]; 10 CDI patients, ibezapolstat 450 mg twice daily 10 days
  adverse event profile, in words: acceptable adverse event profile
[2]; [6]
  Adverse event Headache: Action taken with study medication: No
  Adverse event Headache: Frequency: Intermittent
  Adverse event Headache: Intensity: Mild
  Adverse event Headache: Outcome: Resolved
  Adverse event Headache: Relationship to study drug: Unrelated
  Adverse event Headache: Serious AE: No
  Adverse event Headache: Treatment required: No
  Adverse event Intertriginous Candidiasis: Action taken with study medication: No
  Adverse event Intertriginous Candidiasis: Frequency: Continuous
  Adverse event Intertriginous Candidiasis: Intensity: Moderate
  Adverse event Intertriginous Candidiasis: Outcome: Resolved
  Adverse event Intertriginous Candidiasis: Relationship to study drug: Unrelated
  Adverse event Intertriginous Candidiasis: Serious AE: No
  Adverse event Intertriginous Candidiasis: Treatment required: Yes
  Adverse event Migraine headache: Action taken with study medication: No
  Adverse event Migraine headache: Frequency: Continuous
  Adverse event Migraine headache: Intensity: Severe
  Adverse event Migraine headache: Outcome: Resolved
  Adverse event Migraine headache: Relationship to study drug: Unrelated
  Adverse event Migraine headache: Serious AE: No
  Adverse event Migraine headache: Treatment required: Yes
  Adverse event Nausea: Action taken with study medication: No
  Adverse event Nausea: Frequency: Intermittent
  Adverse event Nausea: Intensity: Moderate
  Adverse event Nausea: Outcome: Resolved
  Adverse event Nausea: Relationship to study drug: Probably
  Adverse event Nausea: Serious AE: No
  Adverse event Nausea: Treatment required: No
  Adverse event Vomiting: Action taken with study medication: No
  Adverse event Vomiting: Frequency: Once
  Adverse event Vomiting: Intensity: Moderate
  Adverse event Vomiting: Outcome: Resolved
  Adverse event Vomiting: Relationship to study drug: Probably
  Adverse event Vomiting: Serious AE: No
  Adverse event Vomiting: Treatment required: Yes
[2]; of the 10 patients
  patients with AEs: 4
[3]
  stool samples with detectable concentration on day 38: Three of 4
[3]; 450 mg twice daily
  plasma concentrations, upper limit: ≤ 1000 ng/mL
  stool concentration, days 8-10 of therapy: > 1,000 μg/g stool
[3]; human, plasma, oral, 450 mg twice daily, read-out: plasma levels 2-hour post-dose
  concentration at 2 h: 234 to 299 ng/mL
[3]; human, plasma, oral, 450 mg twice daily, read-out: plasma levels 4-hour postdose
  concentration at 4 h: 373 to 578 ng/mL
[3]; human, stool, oral, 450 mg, read-out: stool concentration two days after EOT
  concentration at 2 days after EOT: 535000 ± 748000 ng/g
[3]; human, stool, oral, 450 mg, samples with detectable concentration
  concentration at 38 day: 136000 ± 161000 ng/g
[3]; human, stool, oral, 450 mg twice daily
  concentration at 3 day of therapy: 416000 ± 494000 ng/g
C. difficile; all sampling days other than baseline, 7-9 samples/day
  C. difficile growth from stool samples after baseline: did not grow C. difficile
C. difficile; ibezapolstat 450 mg twice daily
  Eradication of colonic C. difficile: complete eradication of colonic C. difficile by day three

## CN[C@H](CC(C)C)C(=O)N[C@H]1C(=O)N[C@@H](CC(N)=O)C(=O)N[C@H]2C(=O)N[C@H]3C(=O)N[C@H](C(=O)N[C@H](C(=O)O)c4cc(O)cc(O)c4-c4cc3ccc4O)[C@H](O)c3ccc(c(Cl)c3)Oc3cc2cc(c3O[C@@H]2O[C@H](CO)[C@@H](O)[C@H](O)[C@H]2O[C@H]2C[C@](C)(N)[C@H](O)[C@H](C)O2)Oc2ccc(cc2Cl)[C@H]1O [Vancomycin, vancomycin]
C. difficile infection [4]
  patients having a recurring CDI after treatment is discontinued: 20-25%

## CCc1c(Cl)c(O)c(Cl)c(O)c1C(=O)O[C@H]1[C@H](O)[C@H](OC)[C@H](OC/C2=C\C=C\C[C@H](O)/C(C)=C/[C@H](CC)[C@@H](O[C@@H]3OC(C)(C)[C@@H](OC(=O)C(C)C)[C@H](O)[C@@H]3O)/C(C)=C/C(C)=C/C[C@@H]([C@@H](C)O)OC2=O)O[C@@H]1C [fidaxomicin]
C. difficile infection [4]
  CDI recurrence rates lower than other treatments: approximately 50%
